Measurements reported in patent publication US7754202B1, “Methods of controlling cell differentiation and growth using a fusion protein and a drug” (Stanford University, priority 1998, dated 2010).

Tests used:
[1] = tested on: Ba/F3 cell lines expressing gp130 signaling domain fused to FKBP12 domains; experiment: Proliferation of Ba/F3 cell lines expressing gp130-FKBP12 fusion proteins; type: cell-based
Description: Expression cassettes encoding fusion proteins containing the signaling domains of the gp130 fused to one, two or three copies of the FKBP12 domain were used to generate stably transfected Ba/F3 cell lines. The complexes that can be assembled in response to FK1012 differ for the various fusion proteins. In the presence of FK1012, fusion proteins containing a single FKBP domain are limited to simple dimerization, whereas proteins containing two or more FKBP domains can form both dimers and oligomers.
In one illustrative experiment, an MSCV-based expression vector was constructed that contained two FKBP12 domains.

cells = experiment: Immunosuppressive activity or other toxicity to cells; type: cell-based; settings: in experiments to date
[2] = Solubility in aqueous culture medium; type: physicochemical; settings: aqueous buffer, serial dilution in culture medium, read-out: highest concentration ensuring complete solubility in the (aqueous) medium
Method: Working concentrations of AP1510 can be obtained by adding compound directly from ethanol stocks, or by diluting serially in culture medium just before use. In the latter case it is recommended that the highest concentration not exceed 5 uM, to ensure complete solubility in the (aqueous) medium. In either case, the final concentration of ethanol in the medium added to mammalian cells should be kept below 0.5% (a 200-fold dilution of a 100% ethanol solution) to prevent detrimental effects of the solvent on the cells.

[3] = tested on: CD34+ cells from human cord blood transduced with dimerizer-responsive c-mpl signaling domain; experiment: Amplification and erythroid differentiation of MFM-transduced human cord blood CD34+ cells; type: cell-based
Description: CD34+ cells were selected from human cord blood and transduced with a PG13-packaged, MSCV-based retrovirus vector encoding a dimerizer-responsive version of the c-mpl signaling domain (MFM, as described in Example 7, see FIG. 4). […] This finding was reproducible, occurring in each of four separate experiments.

[4] = tested on: murine bone marrow cells transduced with MSCVF1mpl; experiment: Suspension culture of MSCVF1mpl-transduced bone marrow cells (cell numbers, cell types); type: cell-based
Method: FIG. 2: FK1012 stimulates expansion of genetically modified bone marrow cells. Following retroviral transduction, marrow cells were cultured in IMDM containing 10% FCS, 50 U/ml penicillin, […] streptomycin either in the presence or absence of FK1012 (100 nM) or flt-3 ligand (Peprotech-100 ng/ml), in a 37°, 5% CO2, incubator. Cell numbers were determined on the days indicated. Open diamonds: No FK1012, no FL; Closed diamonds: FK1012 alone; Open circles: FL alone; Closed circles: FK1012 plus FL. Note that X axis is on a logarithmic scale.
Forty-eight hours following administration of 150 mg/kg 5-fluorouracil (5-FU), marrow cells were harvested from B6D2F1 mice and cultured for 48 hours in Dulbecco's Modified Eagle's Medium containing 16% fetal calf serum (Intergen), 5% IL3-conditioned medium (Stem Cell Technologies), 100 ng/ml recombinant human IL6 and 50 ng/ml recombinant murine stem cell factor in a 37° C., 5% CO2 incubator. After 48 hours, cells were transferred onto irradiated (1500 cGy) producer cells and cocultivated using the same growth conditions except for the addition of polybrene ([…]). Marrow cells were harvested after 48-hours of cocultivation.
In order to test whether the pharmacological activation of mpl is capable of driving proliferation in genetically modified bone marrow cells, the F1mpl construct was inserted into the retroviral vector MSCV-neoEB (Hawley, et al. Gene Ther. 1:136, 1994). The resulting construct, MSCVF1mpl, was used to generate a stable, high titer, helper virus-free ecotropic producer cell line as described above. Supernatant from the producer cell line was capable of conferring G418 resistance and FK1012 responsiveness in transduced Ba/F3 cell clones (FIG. 1C). Gene transfer into murine bone marrow cells was performed by cocultivation, and transduced marrow cells were tested in suspension culture for the capacity to respond to FK1012. In one set of cultures, FK1012's effects were evaluated in the absence of added growth factors. […] Cell numbers were determined at various time points of culture (FIG. 2). In the absence of drug or added growth factors, all cells died over a period of 7-14 days. […] In contrast, FK1012 dramatically stimulated cell proliferation. The proliferative effect of FK1012 was apparent within 5 days of culture, and has persisted for longer than 49 days without evidence of decline. […] By 42 days of culture FK1012 had induced a greater than 2.5 million-fold expansion in cell numbers.
The types of cells emerging in response to FK1012 differed at varying time points of culture. […] Similar results were obtained in a second experiment.

transduced marrow cells = experiment: Reversibility of FK1012-dependent cell proliferation after 28 days of culture; type: cell-based, murine
Method: For the experiments whose results are shown in Table 3, after 28 days of culture in FK1012 (100 nM), transduced marrow cells were washed extensively and cultured in suspension in the presence (+) or absence (−) of FK1012. The numbers in Table 3 indicate the number of cells per well×10^−5.

[5] = tested on: clonogenic progenitor cells (CFU-C) of MSCVF1mpl-transduced marrow; experiment: CFU-C assays during suspension culture, with or without G418; type: cell-based, murine
Method: FIG. 3: CFU-C assays at various time points during suspension culture. Cells were harvested on the days indicated and cultured in semisolid media (Blau, et al. Hum. Gen. Ther. 7:2069, 1996) either in the presence or absence of G418. The concentration of G418, […], was sufficient to prevent the growth of nontransduced cells (data not shown). Dark bars: CFU-C numbers in the absence of G418; Light bars: CFU-C numbers in the presence of G418. (A) No FK1012, no FL; (B) FK1012 alone; (C) FL alone; (D) FK1012 plus FL. Note that FK1012-mediated CFU-C expansion markedly favors the genetically modified cell population.
To determine whether FK1012 is capable of stimulating expansion among clonogenic progenitor cells, progenitors were assayed at various time points of culture as colony forming unit cells (CFU-C). As the MSCVF1mpl vector incorporates a neo gene. (Hawley, et al. Gene Ther. 1:136, 1994), the frequency of genetically modified progenitors is reflected in the frequency of G418 resistant CFU-C. […] By day 28 CFU-C had fallen to undetectable levels (FIG. 3A). In contrast, in the presence of FK1012 an almost 600,000-fold expansion in CFU-C was observed by day 42 (FIG. 3B). […] Of note is that while granulocytes were virtually absent after 42 days in suspension culture in the presence of FK1012 alone, CFU-C progeny derived from these cultures contained large numbers of granulocytes. […]

G418 resistant CFU-C = experiment: FK1012-mediated selection of genetically modified CFU-C in a mixed transduced/non-transduced marrow population; type: cell-based, murine; settings: mixed transduced and non-transduced marrow
Description: In order to determine whether FK1012 is capable of specifically delivering a mitogenic signal to a minor population of genetically modified CFU-C, marrow cells cocultivated with the MSCVF1mpl producer cell line were mixed with marrow cells cocultivated with the parental packaging cell line. The frequency of G418 CFU-C arising from this mixed population of transduced and non-transduced cells was 35%.
The numbers in Table 4 indicate the fraction of G418 resistant CFU-C.

[6] = gp130 chimeric proteins containing a single FKBP12 domain
[7] = gp130 fusion proteins with two or three FKBP12 domains
[8] = FK1012 100 nM, suspension culture

With `CCC(C)(C)C(=O)C(=O)N1CCCC[C@H]1C(=O)O[C@H](CCc1ccc(OC)c(OC)c1)c1cccc(OCC(=O)NCCNC(=O)COc2cccc([C@@H](CCc3ccc(OC)c(OC)c3)OC(=O)[C@@H]3CCCCN3C(=O)C(=O)C(C)(C)CC)c2)c1` [AP1510] the proliferative response [1, 6] was “minimal proliferative response”, the proliferative response [1, 7] was “vigorous proliferative responses” and the “immunosuppressive activity or other toxicity to cells” value (cells) was “no immunosuppressive activity or other toxicity to cells”. For the same molecule, the solubility [2] was ≤ 5 µM.

With `CC[C@H](C(=O)N1CCCC[C@H]1C(=O)O[C@H](CCc1ccc(OC)c(OC)c1)c1cccc(OCC(=O)NCCNC(=O)COc2cccc([C@@H](CCc3ccc(OC)c(OC)c3)OC(=O)[C@@H]3CCCCN3C(=O)[C@@H](CC)c3cc(OC)c(OC)c(OC)c3)c2)c1)c1cc(OC)c(OC)c(OC)c1` [AP1903] the cells expressing glycophorin ([3]; by day 15 of culture) was 90%, the “expansion in total cell numbers” value ([3]; in the absence of added cytokines) was 175-350 fold and the cell proliferation ([1]; MSCV construct, gp130 with two modified FKBP12 domains, Ba/F3 cells) was “vigorous AP1903-dependent cell proliferation”.

With FK1012 the “persistence of proliferative effect without evidence of decline” value [4, 8] was > 49 days, the “time until proliferative effect apparent” value [4, 8] was ≤ 5 days and the “expansion in cell numbers” value ([4]; by 42 days of culture, FK1012 100 nM) was “greater than 2.5 million”. The “types of cells emerging” value ([4]; first two weeks of culture in FK1012) was “mature granulocytes and macrophages predominated, while megakaryocytes were rare”, the “types of cells emerging” value ([4]; later time points of culture in FK1012) was “megakaryocytes emerged as the dominant phenotypically identifiable cell population” and the “number of cells per well” value (transduced marrow cells; absence (−) of FK1012 after 28 days in FK1012 and washing, day 0) was 5 10^5 cells per well. For the same molecule, the “number of cells per well” value (transduced marrow cells; absence (−) of FK1012 after 28 days in FK1012 and washing, day 7) was 0.59 10^5 cells per well, the “number of cells per well” value (transduced marrow cells; absence (−) of FK1012 after 28 days in FK1012 and washing, day 14) was “.09 cells per well×10^−5” and the “reversibility of proliferative effect” value (transduced marrow cells; cells cultured 28 days in FK1012, then withdrawal or re-addition) was “withdrawal of FK1012 was followed promptly by cell death”. For the same molecule, the “number of cells per well” value (transduced marrow cells; presence (+) of FK1012, day 0 in culture) was 5 10^5 cells per well, the “number of cells per well” value (transduced marrow cells; presence (+) of FK1012, day 7 in culture) was 36 10^5 cells per well and the “number of cells per well” value (transduced marrow cells; presence (+) of FK1012, day 14 in culture) was 1283 10^5 cells per well. For the same molecule, the “expansion in CFU-C” value ([5]; by day 42, FK1012 alone) was ~600,000 fold, the “fraction of G418 resistant CFU-C” value (G418 resistant CFU-C; day 0 in culture) was 0.35 and the “fraction of G418 resistant CFU-C” value (G418 resistant CFU-C; day 7 in culture) was 0.96. The proliferative response [1, 6] was “minimal proliferative response”, the proliferative response [1, 7] was “lesser proliferative responses” and the “in vivo half life” value (In vivo half life) was “less than one”.

B1: FL: flt-3 ligand (Peprotech), growth factor used at 100 ng/ml (protein, UniProt P49771 27-235, looked up)
Fms-related tyrosine kinase 3 …: TQDCSFQHSPISSDFAVKIRELSDYLLQDYPVTVASNLQDEELCGGLWRLVLAQRWMERLKTVAGSKMQGLLERVNTEIHFVTKCAFQPPPSCLRFVQTNISRLLQETSEQLVALKPWITRQNFSRCLELQCQPDSSTLPPPWSPRPLEATAPTAPQPPLLLLLLLPVGLLLLAAAWCLHWQRTRRRTPRPGEQVPPVPSPQDLLLVEH
For B1, the “cell survival in suspension culture” value ([4]; FL alone) was “all cells died by day 28”, the “expansion in cell numbers” value ([4]; FL alone (100 ng/ml), between 9 and 12 days of suspension culture) was “three” and the “expansion in CFU-C” value ([5]; FL alone, transient, without preference for the transduced population) was “seven”. For the same molecule, the “fraction of G418 resistant CFU-C” value (G418 resistant CFU-C; day 0 in culture) was 0.35 and the “fraction of G418 resistant CFU-C” value (G418 resistant CFU-C; day 7 in culture) was 0.14.
